# According to patent publication US20120070392A1, “COMPOSITION FOR INHIBITING ERYTHEMA CAUSED BY ULTRAVIOLET RADIATION CONTAINING A DIPEPTIDE AS ACTIVE INGREDIENT” (priority 2009, published 2012):
# Test system: PGE2 production
# Assay: Inhibition of UVB-induced PGE2 production in cultured human keratinocytes (PGE2 assay kit, calibrated with MTT absorbance)
# Format: cell-based
# Details: not given
# Protocol: Human keratinocytes were seeded at a density of 1×10^5 cells/well to 6-well plates containing 2 mL of KGM(keratinocyte growth medium, Clonetics, San Diego, Calif., USA) per well and cultured overnight. Then, the medium was replaced with KBM(keratinocyte basal medium) supplemented with 0.1% BSA(bovine serum albumin) and the cells were cultured for an additional 24 hours. Subsequently, the cells were pre-treated for an additional 24 hours with 2 mL of the same medium containing 10 μg/ml of each of the dipeptides listed in Table 1. […] The pre-treated medium was transferred to new 24 well plates and 1 mL of DPBS(Dulbecco's phosphate buffered saline) was added to the cells in each well. During UV irradiation, the transferred medium was stored in a cell incubator. […] At this time, the control was covered with aluminum foil. After the removal of DPBS, the transferred medium was returned to each well. The cells were further cultured for 24 hours, after which 1 mL of the medium was transferred to microcentrifuge tubes. […] The supernatants were then removed and the formazan crystals were solubilized in 1 ml of DMSO(dimethylsulfoxide). One hundred μL of the solution was transferred to each well of 96-well plates and an optical density was determined at 540 nm using an ELISA(enzyme-linked immunosorbent assay) reader. […] The concentration of PGE2 was determined using a PGE2 Assay Kit(KGE004, R&D Systems, Inc., Minneapolis, Minn., USA) according to the manufacturer's instruction. […] After removal of the reaction, the wells were washed five times with 400 μL of wash buffer. To each well was added 200 μL of a substrate solution, followed by incubation for 20 30 min. The reaction was terminated with 50 μL of a stop solution per well before determining absorbance at 450 nm on an ELISA reader. The PGE2 concentration of each sample was calculated from the standard graph and calibrated with the absorbance obtained in the MTT assay to determine their inhibitory activity against PGE2 production.
row,Compound,% Inhibition against PGE2 Production
1,proline-threonine [PT],21.7%
2,glutamic acid-proline [EP],80.8%
3,asparagine-serine [NS],31.9%
4,histidine-proline [HP],26.3%
5,serine-histidine [SH],51.5%
6,methionine-tryptophan [MW],76.4%
7,histidine-lysine [HK],43.8%
8,"NCC(=O)O.O=C(O)[C@@H]1CCCN1 [PG, proline-glycine]",80.7%
9,valine-lysine [VK],42.0%
10,proline-phenylalanine [PF],32.8%
11,aspartic acid-proline [DP],89.3%
12,proline-serine [PS],71.3%
13,isoleucine-proline [IP],59.5%
14,"NCC(=O)O.N[C@@H](CC(=O)O)C(=O)O [DG, aspartic acid-glycine]",79.7%
15,tyrosine-tyrosine [YY],83.5%
16,valine-valine [VV],89.9%
17,glutamine-histidine [QH],14.8%
18,asparagine-histidine [NH],65.8%
19,tyrosine-glutamine [YQ],13.5%
20,isoleucine-methionine [IM],57.1%
21,aspartic acid-histidine [DH],59.2%
22,"NCC(=O)O.NCCCC[C@H](N)C(=O)O [GK, glycine-lysine]",87.0%
23,valine-tyrosine [VY],83.2%

row,Compound,% Inhibition against PGE2 Production
1,asparagine-cysteine [NC],83.1%
2,proline-tryptophan [PW],85.5%
3,arginine-proline [RP],88.7%
4,"NCC(=O)O.N[C@@H](CC(=O)O)C(=O)O [GD, glycine-aspartic acid]",23.8%
5,tyrosine-lysine [YK],89.9%
6,alanine-asparagine,58.8%
7,proline-isoleucine [PI],87.2%
8,aspartic acid-asparagine [DN],85.6%
9,tyrosine-arginine,83.7%
10,leucine-histidine [LH],81.7%
11,valine-histidine [VH],47.6%
12,proline-tyrosine [PY],24.8%
13,asparagine-threonine [NT],57.2%
14,proline-lysine [PK],96.3%
15,alanine-histidine [AH],64.7%
16,asparagine-methionine [NM],89.5%
17,valine-cysteine [VC],43.3%
18,asparagine-proline [NP],70.6%
19,isoleucine-histidine [IH],27.1%
20,lysine-tyrosine [KY],72.6%
21,alanine-valine [AV],44.8%
22,serine-asparagine [SN],49.9%

# Same assay, conditions: 10 μg/ml dipeptide, 24 h pre-treatment, human keratinocytes, UVB 100 mJ/cm^2, medium assayed 24 h after irradiation; 0% or lower expressed as zero; 10% or more regarded as effective
row,Compound,% Inhibition against PGE2 Production
1,phenylalanine-phenylalanine [FF],70.5%
2,proline-alanine [PA],76.8%
3,phenylalanine-histidine [FH],39.2%
4,valine-alanine,64.7%
5,serine-alanine [SA],51.0%

# Same assay, conditions: 10 μg/ml dipeptide, 24 h pre-treatment, human keratinocytes, UVB 100 mJ/cm^2, medium assayed 24 h after irradiation; […]; 10% or more regarded as effective
row,Compound,% Inhibition against PGE2 Production
1,alanine-lysine [AK],90.3%
2,threonine-phenylalanine [TF],77.3%
3,phenylalanine-tryptophan [FW],92.9%
4,leucine-arginine [LR],52.0%
5,serine-arginine [SR],52.9%
6,arginine-lysine [RK],88.2%
7,arginine-tryptophan [RW],34.9%
8,glutamine-serine [QS],28.2%
9,glutamic acid-leucine [EL],56.2%
10,glutamic acid-isoleucine [EI],74.0%
11,asparagine-glutamine [NQ],70.1%
12,tryptophan-serine [WS],89.0%
13,valine-phenylalanine [VF],12.2%
14,phenylalanine-asparagine [FN],81.4%
15,threonine-lysine [TK],39.0%
16,alanine-isoleucine [AI],60.1%
17,lysine-aspartic acid [KD],90.3%
18,glutamic acid-phenylalanine [EF],13.3%
19,glutamine-valine [QV],59.7%
20,isoleucine-lysine [IK],71.3%
21,aspartic acid-phenylalanine [DF],83.4%

row,Compound,% Inhibition against PGE2 Production
1,tryptophan-cysteine [WC],18.3%
2,leucine-glutamic acid,92.8%
3,alanine-leucine,48.9%
4,valine-leucine [VL],47.0%
5,serine-leucine [SL],81.6%
6,serine-lysine [SK],44.9%
7,phenylalanine-aspartic acid [FD],13.7%
8,arginine-aspartic acid [RD],24.1%
9,glutamine-threonine [QT],25.0%
10,arginine-cysteine [RC],95.1%
11,serine-serine [SS],93.8%
12,glutamine-tryptophan [QW],42.8%
13,glutamic acid-lysine [EK],76.5%
14,valine-glutamine [VQ],71.2%
15,threonine-aspartic acid [TD],77.6%
16,leucine-lysine [LK],82.8%
17,tryptophan-glutamic acid [WE],79.9%
18,valine-isoleucine [VI],51.7%
19,cysteine-glutamine [CQ],93.9%
20,aspartic acid-aspartic acid [DD],64.2%
21,tryptophan-asparagine [WN],33.1%

row,Compound,% Inhibition against PGE2 Production
1,glutamic acid-threonine [ET],67.9%
2,aspartic acid-glutamic acid [DE],58.5%
3,lysine-cysteine [KC],20.2%
4,tryptophan-tyrosine [WY],55.6%
5,tryptophan-phenylalanine [WF],81.7%
6,serine-glutamic acid,44.0%
7,serine-threonine [ST],79.5%
8,threonine-serine [TS],55.7%
9,glutamine-glutamine [QQ],92.5%
10,asparagine-phenylalanine [NF],88.2%
11,isoleucine-valine [IV],70.9%
12,isoleucine-aspartic acid,64.6%
13,serine-isoleucine [SI],50.3%
14,tryptophan-valine [WV],79.6%
15,alanine-glutamic acid [AE],74.6%
16,histidine-tryptophan [HW],21.6%
17,leucine-phenylalanine [LF],90.2%
18,arginine-arginine [RR],90.5%
19,glutamic acid-glutamic acid [EE],86.5%
